Reference: patent publication US9526785B2, “Pharmaceuticals for oral delivery” (Enteris BioPharma, Inc., priority 2013, dated 2016)
Like-named read-outs stand apart in the source and are kept apart here.

What was measured:
[1] = Tigecycline plasma PK after IV bolus in dogs; type: in vivo, Beagle dogs; conditions: female, beagle, dog, plasma; for AUC(0-t) / Cmax: iv
Experimental: Adult beagle dogs weighing approximately 9 to 15 kg were used in the study. […] Room temperature was set to be maintained between approximately 20±5° C. Relative humidity was monitored but not controlled.
TEKLAD™ Certified Canine Diet was provided once daily in amounts (˜400 grams) appropriate for the size and age of the animals. Tap water was available ad libitum via automatic watering device or water bowls.
Doses are expressed in terms of free net tigecycline content. […] Oral dosing of enteric-coated capsules was accomplished by administering them to the back of the dog's mouth, followed by a chase of 5 mL water to ensure swallowing.
Water was provided ad libitum. […] Subsequently, each group of animals was dosed based on the protocol, i.e. either IV, or PO by capsule.
Minocycline (VWR international) was used as an internal standard. Sample processing/clean-up of plasma samples was carried out offline by protein precipitation with acidified acetonitrile using 0.5% trifluoroacetic acid (TFA).
The HPLC system consisted of Shimadzu SIL-HTc HPLC system equipped with dual Shimadzu LC-10ADvp isopumps, a Shimadzu CTO-10ASvp column temperature controller and a Shimadzu SPD-10Avp variable wavelength detector. […] Mobile phase A consisted of 23 mM phosphate buffer pH 2.5 with 4 mM 1-octanesulfonic acid, while mobile phase B consisting of 90% acetonitrile, 10% water, with 2 mM 1-octanesulfonic acid. […] The total runtime was 18 minutes per sample. The mobile phase flow rate was 1.2 mL/min. Detection was performed using the SPD-10Avp variable wavelength detector set at 350 nm, with a sensitivity of 0.001 aufs.
The samples were then centrifuged under refrigeration at 13 k rpm for 5 minutes. The supernatant was taken and the liquid removed to dryness under nitrogen in a turbovap. The dried extract was reconstituted in 60 μL of mobile phase A and the suspension was further centrifuged at 5 k rpm for 5 minutes to pellet any insoluble matter. The resulting supernatant was then injected onto the LC.
The unknown concentration in dog plasma samples was determined by interpolation of the peak area ratios of analyte:internal standard versus the ratio of their nominal concentrations into the regression line obtained from calibration standards spiked in pooled dog plasma. No regression weighting was used for the calculations. […] The calibration curve covered the range of 0.05 μg/mL to 5 μg/mL.
It should be noted however, that when the method was transferred to an older HPLC system (equipped with a Shimadzu SCT-10Avp system controller and SIL-10A autoinjector), the time program was further altered such that the gradient went to 38% mobile phase B to account to system design changes. All other parameters remained unchanged.
Tigecycline PK parameters for individual dogs were calculated using non-compartmental analysis with PK Functions for Microsoft Excel.

[2] = cited from earlier work
[3] = reported; in humans; cited from earlier work
[4] = intravenous, 5 mg, Tigecycline Plasma Concentration, 5 mg IV in PBS ([…]), SC431, individual dogs
[5] = intravenous, 5 mg, Tigecycline Plasma Concentration, 5 mg IV in PBS ([…]), SC431, mean

CN(C)c1cc(NC(=O)CNC(C)(C)C)c(O)c2c1C[C@H]1C[C@H]3[C@H](N(C)C)C(O)=C(C(N)=O)C(=O)[C@@]3(O)C(O)=C1C2=O [Tigecycline]
concentration at 360 min ([1]; intravenous, 1 mg, Tigecycline Plasma Concentration, 1 mg IV in PBS (0.08 mg/kg), SC427, mean): 1.15 ng/mL | concentration at 5 min [1, 4]: 336 ng/mL | concentration at 5 min [1, 5]: 335 ng/mL | concentration at 10 min [1, 4]: 198 ng/mL | concentration at 10 min [1, 5]: 163 ng/mL | concentration at 15 min [1, 4]: 122 ng/mL | concentration at 15 min [1, 5]: 111 ng/mL | concentration at 20 min [1, 4]: 117 ng/mL | concentration at 20 min [1, 5]: 94.4 ng/mL | concentration at 30 min ([1]; intravenous, 5 mg, Tigecycline Plasma Concentration, 30 min, 5 mg IV in PBS ([…]), SC431, mean): 76.2 ng/mL | concentration at 40 min [1, 4]: 72 ng/mL | concentration at 40 min [1, 5]: 60.5 ng/mL | concentration at 60 min ([1]; intravenous, 5 mg, Tigecycline Plasma Concentration, 60 min, 5 mg IV in PBS ([…]), SC431, mean): 49.1 ng/mL | concentration at 90 min [1, 4]: 59.9 ng/mL | concentration at 90 min [1, 5]: 47.4 ng/mL | concentration at 120 min ([1]; intravenous, 5 mg, Tigecycline Plasma Concentration, 120 min, 5 mg IV in PBS ([…]), SC431, mean): 42.3 ng/mL | concentration at 360 min [1, 5]: 16.5 ng/mL | AUC(0-t) ([1]; 0.08 mg/kg, 1 mg IV in PBS (0.08 mg/kg), SC427, individual dogs, read-out: AUC(0-t)): 56.2 ng·h/mL | Cmax ([1]; 0.08 mg/kg, 1 mg IV in PBS (0.08 mg/kg), SC427, individual dogs, read-out: Cmax): 86 ng/mL | AUC(0-t) ([1]; 0.08 mg/kg, 1 mg IV in PBS (0.08 mg/kg), SC427, mean, read-out: AUC(0-t)): 72.4 ng·h/mL | Cmax ([1]; 0.08 mg/kg, 1 mg IV in PBS (0.08 mg/kg), SC427, mean, read-out: Cmax): 79.1 ng/mL | AUC(0-t) ([1]; 0.08 mg/kg, IV bolus 1 mg (0.08 mg/kg), SC427, read-out: AUC(0-t), mean): 72.4 ng·h/mL | Cmax ([1]; 0.08 mg/kg, IV bolus 1 mg (0.08 mg/kg), SC427, read-out: Cmax, mean): 79.1 ng/mL | AUC(0-t) ([1]; 0.08 mg/kg, IV, Study 1 (SC427), 1 mg (0.08 mg/kg), mean (% CV), read-out: AUC(0-t)): 72.4 ng·h/mL | Cmax ([1]; 0.08 mg/kg, IV, Study 1 (SC427), 1 mg (0.08 mg/kg), mean (% CV), read-out: Cmax): 79.1 ng/mL | Cmax ([1]; […], 5 mg IV in PBS ([…]), SC431, individual dogs, read-out: Cmax): 336 ng/mL | AUC(0-t) ([1]; […], 5 mg IV in PBS ([…]), SC431, mean, read-out: AUC(0-t)): 411 ng·h/mL | Cmax ([1]; […], 5 mg IV in PBS ([…]), SC431, mean, read-out: Cmax): 335 ng/mL | AUC(0-t) ([1]; […], IV bolus 5 mg ([…]), SC431, read-out: AUC(0-t), mean): 411 ng·h/mL | Cmax ([1]; […], IV bolus 5 mg ([…]), SC431, read-out: Cmax, mean): 335 ng/mL | AUC(0-t) ([1]; […], IV, Study 2 (SC431), 5 mg ([…]), mean (% CV), read-out: AUC(0-t)): 411 ng·h/mL | Cmax ([1]; […], IV, Study 2 (SC431), 5 mg ([…]), mean (% CV), read-out: Cmax): 335 ng/mL | Tmax ([1]; IV bolus 1 mg (0.08 mg/kg), SC427, read-out: Tmax, mean (converted)): 5 min | Tmax ([1]; IV bolus 5 mg (0.42 mg/kg), SC431, read-out: Tmax (converted)): 5 min | aqueous solubility [2]: approximately 300 mg/mL | single dose half-life [3]: approximately 20 hours
